This passage reports IC50 results from US20240391877A1, “COMPOUND AS INHIBITOR OF COMPLEMENT FACTOR D, AND PHARMACEUTICAL COMPOSITION AND USE THEREOF” (WUHAN CREATERNA SCIENCE AND TECHNOLOGY CO.,LTD., priority 2021, published 2024).

Assay [1] relates to hemolysis of rabbit erythrocytes. In words: Rabbit erythrocyte hemolysis assay to evaluate inhibitory activity on the bypass pathway. Type of assay: cell-based. The settings on record: Oryctolagus cuniculus, 0.5 h, 48% NHP or 26.4% NHS, 37° C. 30 min, absorbance 415 nm. From the text: 2. Rabbit Erythrocyte Hemolysis Assay to Evaluate the Inhibitory Activity of Compounds on the Bypass Pathway
Normal Human Serum, NHS (collected from healthy people), Normal Human Plasma, NHP (Shanghai Yuduo), 96-well ELISA plate (Jet Biofil), Japanese big-eared white rabbit (Wuhan WQJX), Alsever's solution (Procell), centrifuge (Thermo, PICO17), thermostatic shaker (Shanghai Fuma), destaining shaker (Beijing Liuyi), cell counter (Invitrogen, Counter Countess II) (GVB^o, EGTA, MgCl2, NaOH, microplate reader, microplate thermostatic shaker, and pipette are equivalent to those in the experiment 1).
48% NHP: 100% NHP was diluted to 48% with buffer;
26.4% NPS: 100% NHS was diluted to 26.4% with buffer;
rabbit erythrocyte suspension: blood was taken from rabbit ear marginal vein, anticoagulated with Alsever's solution at a ratio of 1:1, stored in portions at 4° C., and could be stored for 4 weeks. Before use, the suspension was centrifuged at 500 g for 5 min to discard the Alsever's solution, washed three times with an equal volume of buffer and centrifuged at 500 g for 5 min, and finally the density was adjusted to 6×10^8 cells/mL with buffer.
In the 96-well ELISA plate, the experimental group was added with 50 μL of 48% NHP or 26.4% NHS and 50 μL of compound solution; the positive control group was added with 50 μL of 48% NHP or 26.4% NHS and 50 μL of buffer containing 0.2% DMSO; the blank control group was added with 50 μL of 48% inactivated NHP or 26.4% inactivated NHS and 0.2% DMSO buffer; the H2O group was added with 100 μL of double-distilled water; incubated at 37° C. for 15 min; 20 μL of rabbit erythrocyte suspension was added to each well and incubated on a shaker at 37° C. for 30 min; centrifuged at 2000 g (3380 rpm) for 5 min, and […] of supernatant was transferred to a new 96-well ELISA plate, and the absorbance was detected at 415 nm.
The PC group represents 100% hemolysis, and the NC group represents 0% hemolysis.
IC50: half-maximal inhibitory concentration. Data were collected to calculate the log value of hemolysis percentage versus compound concentration, and IC50 values were calculated using GraphPad Prism software.

The next assay has as its target T1, complement factor D (Homo sapiens, UniProt P00746).
T1 construct: purchased Complement tech
In words: Complement factor D inhibitory activity (C3b method) in vitro screening; product Bb detected by ELISA. Type of assay: biochemical. Particulars: factor D + factor B + factor C3b, 37° C., Bb by MicroVue Bb Plus ELISA. From the text: 1. Complement Factor D Inhibitory Activity (C3b Method) In Vitro Screening Experiment
V-bottom plate (AXYGEN), DMSO (Sigma), MicroVue Bb Plus ELISA kit (Quidel), complement factor C3b (abbreviated as factor C3b, Complement tech), complement factor B (abbreviated as factor B, Complement tech), complement factor D (abbreviated as factor D, Complement tech), EDTA (MACKLIN), GVB^o (Complement tech), EGTA (Aladdin), MgCl2 (Aladdin), NaOH (Sinopharm), microplate reader (Molecular Devices, SpectraMax i3x), microplate thermostatic shaker (Thermo, MB100-2A), pipette (Gilson)
0.1 M Mg-EGTA: 3.8 g of EGTA, 0.9521 g of MgCl2, and 0.7 g of NaOH were weighed, and the pH was adjusted to 7.5 with NaOH. Distilled water was added to make up to 100 mL, and the mixture was filtered with a […] sterile needle filter, stored in portions at 4° C.
Buffer: 0.1 M Mg-EGTA solution was diluted 10-fold to 10 mM with GVB^o buffer; • factor B working solution: 1 mg/mL factor B solution (10.75 μM) was diluted 6.7-fold to 1.6 μM with buffer; • factor C3b working solution: 1 mg/mL factor C3b solution (5.68 μM) was diluted 5-fold to […] with buffer; • factor D working solution: 0.1 mg/mL factor D solution (4.17 μM) was diluted 1303-fold to 3.2 nM with buffer.
Note: a. The above dilution multiples are for reference only and are adjusted according to the true concentration labeled on the reagent; • b. factor B: 93 KDa, factor D: 24 KDa, factor C3b: 176 KDa.
Stop solution: An appropriate amount of EDTA powder was weighed, dissolved in a certain amount of GVB^o buffer, and the pH was adjusted to 7.5 with NaOH. The mixture was stirred until clear and prepared into a 10 mM solution.
Compound stock solution: 40 mM compound solution was diluted with DMSO into 1 mM stock solution, and the 1 mM stock solution was diluted 3-fold with DMSO at 8 points to prepare compound stock solutions of various concentrations.
Compound working solution: diluted 250-fold with buffer to obtain compound solutions of various concentrations.
In the V-bottom plate, the experimental group was added with 10 μL of factor D solution and 10 μL of compound solution; the positive control group was added with 10 μL of factor D solution and buffer containing 0.4% DMSO; the blank control group was added with […] containing 0.2% DMSO; incubated at 37° C. for 15 min; the factor B working solution and the factor C3b working solution were mixed homogeneously at a ratio of 1:1; 20 µL of the mixture was added to each well and incubated at 37° C. for 30 min; the reaction was stopped by adding 40 μL of stop solution; the production of product Bb was detected by MicroVue Bb Plus ELISA kit.
1.4.1 The required wells of the ELISA plate were taken out and allowed to return to room temperature, and the remaining ones were repackaged and stored at 4° C.;
1.4.2 the wells were washed twice with 300 μL of 1× wash buffer, and incubated for 1 min at 25° C. for the first wash;
1.4.3 samples were diluted 8-fold with complement specimen diluent, and 100 μL of sample was added to each well and incubated at 25° C. for 30 min;
1.4.4 the liquid in the wells was discarded, and the wells were washed 5 times with 300 μL of 1× wash buffer, and incubated at room temperature for 1 min for the first wash;
1.4.5 50 μL of Bb Plus Conjugate was added to each well and incubated at 25° C. for 30 min;
1.4.6 the liquid in the wells was discarded, and the wells were washed 5 times with 300 μL of 1× wash buffer, and incubated at room temperature for 1 min for the first wash;
1.4.7 100 μL of […] (Substrate Solution) was added to each well and incubated at 25° C. for 15 min;
1.4.8 100 μL of stop solution was added to each well, and the absorbance was detected at 450 nm within 30 min.
1.5.1 Inhibition rate of each drug concentration:
The PC group represents 0% inhibition rate, and the NC group represents 100% inhibition rate. […]
In general terms: ELISA stands for enzyme-linked immunosorbent assay.

T1 sequence (P00746 26-253): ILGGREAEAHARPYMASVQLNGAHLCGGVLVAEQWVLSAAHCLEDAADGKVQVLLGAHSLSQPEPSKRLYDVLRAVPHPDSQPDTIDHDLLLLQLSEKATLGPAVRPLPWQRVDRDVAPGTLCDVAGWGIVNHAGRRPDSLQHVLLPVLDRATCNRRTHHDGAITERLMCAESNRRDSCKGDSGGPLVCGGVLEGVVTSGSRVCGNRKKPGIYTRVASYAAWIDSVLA

With `NCc1cccc(-c2cc(COc3ccccc3CC(=O)O)cc(N3CCOC4(CC4)C3)c2)c1` [Compound 016, 2-(2-((3′-(aminomethyl)-5-(4-oxa-7-azaspiro[2.5]octan-7-yl)-[1,1′-biphenyl]-3-yl)methoxy)phenyl)acetic acid], the IC50 (in general, the midpoint of a concentration-inhibition curve) in assay [1] came out at 19 nM; at complement factor D, 26 nM.
Taken in the same sequence, the figures for `NCc1cccc(-c2cc(COc3ccccc3CC(=O)O)cc(N3CCC4(CCC4)C3)c2)c1` [Compound 003, 2-(2-((3′-(aminomethyl)-5-(6-azaspiro[3.4]octan-6-yl)-[1,1′-biphenyl]-3-yl)methoxy)phenyl)acetic acid] were 43 nM and 3 nM.
Turning to `NCc1cccc(-c2cc(COc3ccccc3CC(=O)O)cc(N3CCC4(CC3)CC(O)C4)c2)c1` [Compound 013, 2-(2-((3′-(aminomethyl)-5-(2-hydroxy-7-azaspiro[3.5]nonan-7-yl)-[1,1′-biphenyl]-3-yl)methoxy)phenyl)acetic acid], the IC50 in assay [1] is 28 nM; at complement factor D, 11 nM.
`NCc1cccc(-c2cc(COc3ccccc3CC(=O)O)cc(N3CCC4(CC3)COC4)c2)c1` [Compound 011, 2-(2-((3′-(aminomethyl)-5-(2-oxa-7-azaspiro[3.5]nonan-7-yl)-[1,1′-biphenyl]-3-yl)methoxy)phenyl)acetic acid]: the 50% inhibitory concentration (IC50) is 13 nM in assay [1] and 18 nM at complement factor D.
Taken in the same sequence, the figures for `NCc1cccc(-c2cc(COc3ccccc3CC(=O)O)cc(N3CC4(CCCC4)C3)c2)c1` [Compound 017, 2-(2-((3′-(aminomethyl)-5-(2-azaspiro[3.4]octan-2-yl)-[1,1′-biphenyl]-3-yl)methoxy)phenyl)acetic acid] were 65 nM and 6 nM.
For `NCc1cccc(-c2cc(COc3ccccc3CC(=O)O)cc(N3CC4(CCOC4)C3)c2)c1` [Compound 031, 2-(2-((3′-(aminomethyl)-5-(6-oxa-2-azaspiro[3.4]octan-2-yl)-[1,1′-biphenyl]-3-yl)methoxy)phenyl)acetic acid], the 50% inhibitory concentration (IC50) in assay [1] came out at 6 nM; at complement factor D it was 3 nM.
Take `CN1CC2(CCN(c3cc(COc4ccccc4CC(=O)O)cc(-c4cccc(CN)c4)c3)CC2)C1` [Compound 032, 2-(2-((3′-(aminomethyl)-5-(2-methyl-2,7-diazaspiro[3.5]nonan-7-yl)-[1,1′-biphenyl]-3-yl)methoxy)phenyl)acetic acid]: the values for the half-maximal inhibitory concentration (IC50) (in assay [1]; at complement factor D) were 8 nM and 10 nM, respectively.
`NCc1cccc(-c2cc(COc3ccccc3CC(=O)O)cc(N3CCC4(CCO4)CC3)c2)c1` [Compound 012, 2-(2-((3′-(aminomethyl)-5-(1-oxa-7-azaspiro[3.5]nonan-7-yl)-[1,1′-biphenyl]-3-yl)methoxy)phenyl)acetic acid]: the 50% inhibitory concentration (IC50) worked out at 4 nM in assay [1] and 6 nM at complement factor D.
Turning to `NCc1cc(F)cc(-c2cc(COc3ccccc3CC(=O)O)cc(N3CCC4(CC3)CC4)c2)c1` [Compound 008, 2-(2-((3′-(aminomethyl)-5′-fluoro-5-(6-azaspiro[2.5]octan-6-yl)-[1,1′-biphenyl]-3-yl)methoxy)phenyl)acetic acid], the concentration for half-maximal inhibition (IC50) in assay [1] came to 196 nM; on complement factor D, 18 nM.
As for `NCc1cccc(-c2cc(COc3ccccc3CC(=O)O)cc(N3CCC4(CCOCC4)CC3)c2)c1` [Compound 029, 2-(2-((3′-(aminomethyl)-5-(3-oxa-9-azaspiro[5.5]undecan-9-yl)-[1,1′-biphenyl]-3-yl)methoxy)phenyl)acetic acid], the IC50 in assay [1] stood at 10 nM; on complement factor D, 6 nM.
`NCc1cccc(-c2cc(COc3ccccc3CC(=O)O)cc(N3CC4CCC(C4)C3)c2)c1` [Compound 006, 2-(2-((3′-(aminomethyl)-5-(3-azabicyclo[3.2.1]octan-3-yl)-′[1,1′-biphenyl]-3-yl)methoxy)phenyl)acetic acid]: the results for the IC50 (in assay [1]; at complement factor D) were 54 nM and 4 nM, respectively.
